Legend:
[1] = molecular target: T1, Estrogen receptor (Homo sapiens, UniProt P03372); settings: sf9; further: in other assays of this panel Not Active means under 50% inhibition at 10 µM
T1 sequence (P03372 whole entry): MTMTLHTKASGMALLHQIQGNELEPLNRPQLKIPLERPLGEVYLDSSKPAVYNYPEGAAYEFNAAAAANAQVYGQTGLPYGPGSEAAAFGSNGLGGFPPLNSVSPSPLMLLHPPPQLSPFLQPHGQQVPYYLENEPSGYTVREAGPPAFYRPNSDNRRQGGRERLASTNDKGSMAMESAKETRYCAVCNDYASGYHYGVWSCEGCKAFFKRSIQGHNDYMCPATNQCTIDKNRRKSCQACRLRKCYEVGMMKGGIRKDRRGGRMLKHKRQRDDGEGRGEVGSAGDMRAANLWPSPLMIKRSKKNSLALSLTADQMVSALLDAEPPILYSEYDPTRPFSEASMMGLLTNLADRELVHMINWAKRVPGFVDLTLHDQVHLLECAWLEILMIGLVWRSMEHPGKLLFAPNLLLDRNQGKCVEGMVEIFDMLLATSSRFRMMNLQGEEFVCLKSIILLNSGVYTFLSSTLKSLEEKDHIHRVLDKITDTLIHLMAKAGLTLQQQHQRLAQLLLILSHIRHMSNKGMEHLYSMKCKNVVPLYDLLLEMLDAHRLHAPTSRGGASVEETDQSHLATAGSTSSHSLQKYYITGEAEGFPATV

[2] = molecular target: T2, Glucocorticoid receptor (Homo sapiens, UniProt P04150); settings: hela s3; further: in other assays of this panel Not Active means under 50% inhibition at 10 µM
T2 sequence (P04150 whole entry): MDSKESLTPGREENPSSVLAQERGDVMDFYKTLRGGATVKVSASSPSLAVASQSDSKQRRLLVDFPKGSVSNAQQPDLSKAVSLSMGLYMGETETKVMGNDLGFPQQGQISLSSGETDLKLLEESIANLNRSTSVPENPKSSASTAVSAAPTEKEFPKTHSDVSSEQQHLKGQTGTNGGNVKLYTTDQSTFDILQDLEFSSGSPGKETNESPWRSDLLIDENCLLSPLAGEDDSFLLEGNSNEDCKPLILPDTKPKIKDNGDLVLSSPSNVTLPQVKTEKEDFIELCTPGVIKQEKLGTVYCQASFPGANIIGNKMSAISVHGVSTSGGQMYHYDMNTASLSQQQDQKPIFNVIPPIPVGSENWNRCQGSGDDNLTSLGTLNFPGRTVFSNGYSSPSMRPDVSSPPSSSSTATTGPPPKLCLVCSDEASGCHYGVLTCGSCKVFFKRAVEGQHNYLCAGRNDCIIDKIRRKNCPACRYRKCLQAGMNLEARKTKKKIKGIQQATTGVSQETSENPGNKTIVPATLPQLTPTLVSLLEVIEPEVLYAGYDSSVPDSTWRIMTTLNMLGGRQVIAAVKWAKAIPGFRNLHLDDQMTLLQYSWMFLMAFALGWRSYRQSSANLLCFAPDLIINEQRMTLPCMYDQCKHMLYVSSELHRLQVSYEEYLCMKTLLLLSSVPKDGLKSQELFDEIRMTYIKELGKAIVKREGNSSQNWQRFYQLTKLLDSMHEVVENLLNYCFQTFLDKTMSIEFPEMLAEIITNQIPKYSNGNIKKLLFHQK

[3] = molecular target: Voltage-gated inwardly rectifying potassium channel KCNH2 (Homo sapiens, UniProt Q12809); settings: hek293; further: in other assays of this panel Not Active means under 50% inhibition at 10 µM
[4] = molecular target: Estrogen receptor beta (Homo sapiens, UniProt Q92731); settings: sf9; further: in other assays of this panel Not Active means under 50% inhibition at 10 µM
[5] = molecular target: Cytochrome P450 2C19 (Homo sapiens, UniProt P33261); settings: bti-tn-5b1-4; further: in other assays of this panel Not Active means under 50% inhibition at 10 µM
[6] = molecular target: Cytochrome P450 2D6 (Homo sapiens, UniProt P10635); settings: bti-tn-5b1-4; further: in other assays of this panel Not Active means under 50% inhibition at 10 µM
[7] = molecular target: Sodium-dependent noradrenaline transporter (Homo sapiens, UniProt P23975); assay: DRUGMATRIX: Norepinephrine Transporter radioligand binding (ligand: [125I] RTI-55); type: cell membranes, MDCK, Membrane; settings: Not Active = under 50% inhibition at 10 µM
[8] = molecular target: T3, Cytochrome P450 1A2 (Homo sapiens, UniProt P05177); settings: bti-tn-5b1-4; further: in other assays of this panel Not Active means under 50% inhibition at 10 µM
T3 sequence (P05177 whole entry): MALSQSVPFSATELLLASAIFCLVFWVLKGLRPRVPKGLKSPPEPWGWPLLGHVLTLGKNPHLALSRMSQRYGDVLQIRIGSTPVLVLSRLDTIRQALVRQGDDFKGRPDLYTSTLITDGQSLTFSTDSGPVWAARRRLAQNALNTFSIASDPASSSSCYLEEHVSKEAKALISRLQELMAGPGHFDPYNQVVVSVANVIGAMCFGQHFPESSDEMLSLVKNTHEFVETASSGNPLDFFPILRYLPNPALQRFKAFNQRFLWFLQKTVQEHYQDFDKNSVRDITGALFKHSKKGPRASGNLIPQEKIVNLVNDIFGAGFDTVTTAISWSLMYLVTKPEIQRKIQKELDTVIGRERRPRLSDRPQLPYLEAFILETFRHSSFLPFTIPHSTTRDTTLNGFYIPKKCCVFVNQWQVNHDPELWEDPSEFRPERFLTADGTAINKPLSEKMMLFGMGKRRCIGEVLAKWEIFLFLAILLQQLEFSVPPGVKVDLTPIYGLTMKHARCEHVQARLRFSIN

[9] = molecular target: Cytochrome P450 2C9 (Homo sapiens, UniProt P11712); settings: bti-tn-5b1-4; further: in other assays of this panel Not Active means under 50% inhibition at 10 µM
[10] = molecular target: Cytochrome P450 3A4 (Homo sapiens, UniProt P08684); settings: bti-tn-5b1-4; further: in other assays of this panel Not Active means under 50% inhibition at 10 µM
Cytochrome P450 3A4, sequence (P08684 whole entry): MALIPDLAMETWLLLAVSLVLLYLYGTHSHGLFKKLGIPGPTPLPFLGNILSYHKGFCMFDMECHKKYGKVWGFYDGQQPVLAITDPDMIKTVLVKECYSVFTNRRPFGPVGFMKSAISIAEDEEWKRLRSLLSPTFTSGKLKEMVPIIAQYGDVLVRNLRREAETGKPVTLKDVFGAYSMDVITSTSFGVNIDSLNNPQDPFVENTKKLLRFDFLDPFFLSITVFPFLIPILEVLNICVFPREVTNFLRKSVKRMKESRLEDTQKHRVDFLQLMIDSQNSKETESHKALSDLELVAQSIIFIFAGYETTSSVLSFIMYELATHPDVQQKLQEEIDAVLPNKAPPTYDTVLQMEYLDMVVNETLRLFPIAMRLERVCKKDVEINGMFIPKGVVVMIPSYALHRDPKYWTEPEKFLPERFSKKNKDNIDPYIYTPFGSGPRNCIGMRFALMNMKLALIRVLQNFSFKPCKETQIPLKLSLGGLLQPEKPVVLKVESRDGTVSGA

Estrogen receptor beta, sequence (Q92731 whole entry): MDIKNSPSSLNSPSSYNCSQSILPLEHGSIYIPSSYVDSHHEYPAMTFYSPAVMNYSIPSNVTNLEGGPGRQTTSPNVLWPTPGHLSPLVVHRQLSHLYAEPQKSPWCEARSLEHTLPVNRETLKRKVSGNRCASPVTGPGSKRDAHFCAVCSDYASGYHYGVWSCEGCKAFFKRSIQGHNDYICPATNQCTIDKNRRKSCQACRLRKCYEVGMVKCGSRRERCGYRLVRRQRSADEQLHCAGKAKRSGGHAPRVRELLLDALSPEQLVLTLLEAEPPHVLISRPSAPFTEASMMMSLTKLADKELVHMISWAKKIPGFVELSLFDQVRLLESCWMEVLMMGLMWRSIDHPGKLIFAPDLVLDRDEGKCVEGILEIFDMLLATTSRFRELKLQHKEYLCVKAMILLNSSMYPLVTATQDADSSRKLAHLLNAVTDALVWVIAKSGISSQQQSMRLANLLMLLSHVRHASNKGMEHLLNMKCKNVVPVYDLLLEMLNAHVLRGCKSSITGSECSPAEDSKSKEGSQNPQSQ
Sodium-dependent noradrenaline transporter, sequence (P23975 whole entry): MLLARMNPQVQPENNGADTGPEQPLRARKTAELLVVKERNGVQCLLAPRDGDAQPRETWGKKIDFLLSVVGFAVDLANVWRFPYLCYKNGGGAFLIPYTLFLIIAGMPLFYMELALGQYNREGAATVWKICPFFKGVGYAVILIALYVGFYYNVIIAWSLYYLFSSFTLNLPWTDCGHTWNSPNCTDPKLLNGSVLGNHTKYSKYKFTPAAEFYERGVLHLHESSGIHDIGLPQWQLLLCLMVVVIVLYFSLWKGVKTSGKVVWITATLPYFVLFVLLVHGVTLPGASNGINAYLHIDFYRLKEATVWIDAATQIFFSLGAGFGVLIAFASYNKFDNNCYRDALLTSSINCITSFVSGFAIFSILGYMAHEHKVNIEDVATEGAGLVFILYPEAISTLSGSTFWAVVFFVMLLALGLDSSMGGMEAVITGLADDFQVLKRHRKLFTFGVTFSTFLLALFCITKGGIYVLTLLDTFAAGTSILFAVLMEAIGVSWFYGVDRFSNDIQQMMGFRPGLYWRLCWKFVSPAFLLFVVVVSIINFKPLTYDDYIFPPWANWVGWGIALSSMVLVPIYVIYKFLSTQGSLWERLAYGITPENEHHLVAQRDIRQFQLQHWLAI
Cytochrome P450 2C19, sequence (P33261 whole entry): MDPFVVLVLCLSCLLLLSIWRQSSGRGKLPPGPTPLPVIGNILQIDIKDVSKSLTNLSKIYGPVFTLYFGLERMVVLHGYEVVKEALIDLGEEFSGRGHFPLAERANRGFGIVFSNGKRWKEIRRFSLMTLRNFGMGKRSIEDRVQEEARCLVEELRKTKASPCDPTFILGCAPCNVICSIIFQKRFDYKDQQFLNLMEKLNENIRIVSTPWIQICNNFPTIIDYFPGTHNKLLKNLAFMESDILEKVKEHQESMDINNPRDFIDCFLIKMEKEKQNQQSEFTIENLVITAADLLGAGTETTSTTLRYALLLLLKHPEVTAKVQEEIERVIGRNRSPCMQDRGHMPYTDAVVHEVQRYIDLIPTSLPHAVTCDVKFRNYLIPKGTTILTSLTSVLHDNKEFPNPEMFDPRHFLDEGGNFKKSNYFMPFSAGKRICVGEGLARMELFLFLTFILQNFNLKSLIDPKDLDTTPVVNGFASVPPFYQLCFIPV
Voltage-gated inwardly rectifying potassium channel KCNH2, sequence (Q12809 whole entry): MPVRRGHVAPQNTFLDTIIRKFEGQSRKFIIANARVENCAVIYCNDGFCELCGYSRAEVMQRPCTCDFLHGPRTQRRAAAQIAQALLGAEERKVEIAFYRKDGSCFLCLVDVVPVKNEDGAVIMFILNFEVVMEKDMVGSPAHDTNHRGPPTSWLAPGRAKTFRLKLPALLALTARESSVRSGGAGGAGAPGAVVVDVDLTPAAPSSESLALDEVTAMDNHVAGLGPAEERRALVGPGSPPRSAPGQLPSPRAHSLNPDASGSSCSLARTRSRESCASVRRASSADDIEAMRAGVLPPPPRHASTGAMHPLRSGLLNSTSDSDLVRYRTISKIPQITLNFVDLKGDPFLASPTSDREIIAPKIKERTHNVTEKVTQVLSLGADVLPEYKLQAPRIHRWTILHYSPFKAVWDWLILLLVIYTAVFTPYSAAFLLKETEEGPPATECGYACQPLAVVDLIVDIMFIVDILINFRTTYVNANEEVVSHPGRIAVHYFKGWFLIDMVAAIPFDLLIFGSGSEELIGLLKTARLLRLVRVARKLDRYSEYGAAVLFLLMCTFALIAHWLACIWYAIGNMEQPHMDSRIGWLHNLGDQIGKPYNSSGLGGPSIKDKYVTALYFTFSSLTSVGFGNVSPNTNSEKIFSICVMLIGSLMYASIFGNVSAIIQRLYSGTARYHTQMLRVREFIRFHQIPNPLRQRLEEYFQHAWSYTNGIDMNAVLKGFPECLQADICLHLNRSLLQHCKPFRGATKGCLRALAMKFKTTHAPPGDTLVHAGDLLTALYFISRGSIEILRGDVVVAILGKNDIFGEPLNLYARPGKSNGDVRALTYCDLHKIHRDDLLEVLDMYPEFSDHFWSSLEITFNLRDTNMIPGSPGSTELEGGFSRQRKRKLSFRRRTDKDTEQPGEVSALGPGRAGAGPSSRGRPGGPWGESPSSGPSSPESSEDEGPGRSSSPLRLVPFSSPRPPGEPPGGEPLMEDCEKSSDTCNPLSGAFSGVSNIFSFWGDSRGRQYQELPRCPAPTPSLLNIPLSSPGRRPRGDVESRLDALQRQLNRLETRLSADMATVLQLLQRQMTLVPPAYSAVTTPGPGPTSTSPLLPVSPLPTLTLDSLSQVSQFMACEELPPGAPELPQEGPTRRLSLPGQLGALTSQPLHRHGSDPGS
Cytochrome P450 2D6, sequence (P10635 whole entry): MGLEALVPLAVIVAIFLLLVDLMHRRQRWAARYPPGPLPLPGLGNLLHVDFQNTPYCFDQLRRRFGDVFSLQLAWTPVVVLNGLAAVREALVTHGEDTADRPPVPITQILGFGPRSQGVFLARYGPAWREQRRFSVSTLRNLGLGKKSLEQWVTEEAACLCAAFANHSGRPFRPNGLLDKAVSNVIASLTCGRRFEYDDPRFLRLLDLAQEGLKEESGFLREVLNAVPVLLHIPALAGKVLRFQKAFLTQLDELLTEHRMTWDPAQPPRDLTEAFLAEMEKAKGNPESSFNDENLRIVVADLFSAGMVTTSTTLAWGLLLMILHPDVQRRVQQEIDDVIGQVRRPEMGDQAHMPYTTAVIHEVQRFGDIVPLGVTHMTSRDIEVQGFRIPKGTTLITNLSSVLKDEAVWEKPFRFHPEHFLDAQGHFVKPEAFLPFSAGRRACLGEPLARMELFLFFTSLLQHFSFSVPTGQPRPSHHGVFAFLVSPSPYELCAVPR
Cytochrome P450 2C9, sequence (P11712 whole entry): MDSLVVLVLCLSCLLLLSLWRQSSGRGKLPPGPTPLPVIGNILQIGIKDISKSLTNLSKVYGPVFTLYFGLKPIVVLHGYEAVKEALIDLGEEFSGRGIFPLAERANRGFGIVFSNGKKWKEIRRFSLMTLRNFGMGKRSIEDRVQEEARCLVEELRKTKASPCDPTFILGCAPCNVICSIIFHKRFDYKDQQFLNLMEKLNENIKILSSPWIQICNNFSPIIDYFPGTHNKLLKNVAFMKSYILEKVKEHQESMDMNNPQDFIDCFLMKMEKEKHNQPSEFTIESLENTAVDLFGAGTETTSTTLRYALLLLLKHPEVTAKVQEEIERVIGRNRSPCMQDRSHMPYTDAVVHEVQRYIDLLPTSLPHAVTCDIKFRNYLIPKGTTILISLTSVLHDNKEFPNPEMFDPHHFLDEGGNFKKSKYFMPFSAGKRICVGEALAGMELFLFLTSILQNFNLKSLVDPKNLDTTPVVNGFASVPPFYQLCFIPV

Compound | IC50 [1] | IC50 [2] | IC50 [3] | Ki [3] | IC50 [4] | IC50 [5] | Ki [5] | IC50 [6] | Ki [6] | IC50 ([7]; mdck) | IC50 [8] | Ki [8] | IC50 [9] | Ki [9] | IC50 [10] | Ki [10] | IC50 ([7]; read-out: IC50) [µM] | Ki ([7]; read-out: Ki) [µM]
CCOC(=O)[C@H](CCc1ccccc1)N[C@@H](C)C(=O)N1[C@H](C(=O)O)C[C@@H]2CCC[C@@H]21 | Not Active | Not Active | Not Active | Not Active | Not Active | Not Active | Not Active | Not Active | Not Active | Not Active | Not Active | Not Active | Not Active | Not Active |  |  |  | 
CC1(C)[C@H]2CC[C@]1(C)C(=O)C2 [(-)-CAMPHOR] | Not Active | Not Active | Not Active | Not Active | Not Active | Not Active | Not Active | Not Active | Not Active | Not Active | Not Active | Not Active | Not Active | Not Active | Not Active | Not Active |  | 
CC(CCc1ccccc1)NCC(O)c1ccc(O)c(C(N)=O)c1 (centres undefined) [LABETALOL] | Not Active | Not Active | Not Active | Not Active | Not Active |  |  |  |  |  | Not Active | Not Active | Not Active | Not Active | Not Active | Not Active | 3.35 | 3.33
COC(=O)c1ccc(O)cc1 [METHYLPARABEN] | Not Active | Not Active | Not Active | Not Active | Not Active | Not Active | Not Active | Not Active | Not Active |  | Not Active | Not Active | Not Active | Not Active | Not Active | Not Active |  | 
CN1CCN2c3ccccc3Cc3ccccc3C2C1 (centres undefined) [MIANSERIN] | Not Active | Not Active | Not Active | Not Active | Not Active | Not Active | Not Active | Not Active | Not Active |  |  |  | Not Active | Not Active | Not Active | Not Active |  | 
CC(C)(O)c1ccccc1CC[C@@H](SCC1(CC(=O)O)CC1)c1cccc(/C=C/c2ccc3ccc(Cl)cc3n2)c1 [MONTELUKAST] | Not Active | Not Active | Not Active | Not Active | Not Active | Not Active | Not Active | Not Active | Not Active |  | Not Active | Not Active | Not Active | Not Active | Not Active | Not Active |  | 
COC(=O)C1=C(C)NC(C)=C(C(=O)OC)C1c1ccccc1[N+](=O)[O-] [NIFEDIPINE] | Not Active | Not Active |  |  | Not Active |  |  |  |  | Not Active |  |  |  |  |  |  |  | 
Nc1ccc(S(=O)(=O)Nc2ccnn2-c2ccccc2)cc1 [SULFAPHENAZOLE] | Not Active | Not Active | Not Active | Not Active | Not Active | Not Active | Not Active | Not Active | Not Active | Not Active | Not Active | Not Active |  |  | Not Active | Not Active |  | 
C=CC[C@@H]1/C=C(\C)C[C@H](C)C[C@H](OC)[C@H]2O[C@@](O)(C(=O)C(=O)N3CCCC[C@H]3C(=O)O[C@H](/C(C)=C/[C@@H]3CC[C@@H](O)[C@H](OC)C3)[C@H](C)[C@@H](O)CC1=O)[C@H](C)C[C@@H]2OC [TACROLIMUS ANHYDROUS] | Not Active | Not Active | Not Active | Not Active | Not Active | Not Active | Not Active | Not Active | Not Active | Not Active | Not Active | Not Active | Not Active | Not Active |  |  |  | 
c1ccc2[nH]c(-c3cscn3)nc2c1 [THIABENDAZOLE] | Not Active | Not Active | Not Active | Not Active | Not Active | Not Active | Not Active | Not Active | Not Active | Not Active |  |  | Not Active | Not Active |  |  |  | 
CN[C@H](CC(C)C)C(=O)N[C@H]1C(=O)N[C@@H](CC(N)=O)C(=O)N[C@H]2C(=O)N[C@H]3C(=O)N[C@H](C(=O)N[C@H](C(=O)O)c4cc(O)cc(O)c4-c4cc3ccc4O)[C@H](O)c3ccc(c(Cl)c3)Oc3cc2cc(c3O[C@@H]2O[C@H](CO)[C@@H](O)[C@H](O)[C@H]2O[C@H]2C[C@](C)(N)[C@H](O)[C@H](C)O2)Oc2ccc(cc2Cl)[C@H]1O [VANCOMYCIN] | Not Active | Not Active | Not Active | Not Active | Not Active | Not Active | Not Active | Not Active | Not Active | Not Active | Not Active | Not Active |  |  | Not Active | Not Active |  | 
